We go through one molecule from ChEMBL document CHEMBL3758137 (Eur J Med Chem, 2016).

Each structure is given as a SMILES string. Bounds are passed on as bounds.

For one data set, the system named is Mus musculus. The data set is described as follows: Toxicity in nude mouse xenografted with human EBC1 cells assessed as body weight at 5 and 40 mg/kg, po qd administered for 21 days. It counts as organism-based. The following applies: in vivo, 504 h.
A short description of data set [1]: Antitumor activity against human EBC1 cells xenografted in nude mouse assessed as tumor growth inhibition at 5 mg/kg, po qd administered for 21 days relative to control. The format is functional. As to conditions: EBC-1, po, 504 h, read-out: TGI.
The target in data set [2] is Receptor tyrosine-protein kinase erbB-2 (Homo sapiens, UniProt P04626). The data set is described as follows: Inhibition of recombinant human ErbB2 using poly (Glu,Tyr)4:1 as substrate after 60 mins by ELISA. (An ELISA detects its analyte on a solid surface through an enzyme-linked reagent.)
For data set [3], the target named is T1, Receptor-type tyrosine-protein kinase FLT3 (Homo sapiens, UniProt P36888).
T1 sequence (P36888 whole entry): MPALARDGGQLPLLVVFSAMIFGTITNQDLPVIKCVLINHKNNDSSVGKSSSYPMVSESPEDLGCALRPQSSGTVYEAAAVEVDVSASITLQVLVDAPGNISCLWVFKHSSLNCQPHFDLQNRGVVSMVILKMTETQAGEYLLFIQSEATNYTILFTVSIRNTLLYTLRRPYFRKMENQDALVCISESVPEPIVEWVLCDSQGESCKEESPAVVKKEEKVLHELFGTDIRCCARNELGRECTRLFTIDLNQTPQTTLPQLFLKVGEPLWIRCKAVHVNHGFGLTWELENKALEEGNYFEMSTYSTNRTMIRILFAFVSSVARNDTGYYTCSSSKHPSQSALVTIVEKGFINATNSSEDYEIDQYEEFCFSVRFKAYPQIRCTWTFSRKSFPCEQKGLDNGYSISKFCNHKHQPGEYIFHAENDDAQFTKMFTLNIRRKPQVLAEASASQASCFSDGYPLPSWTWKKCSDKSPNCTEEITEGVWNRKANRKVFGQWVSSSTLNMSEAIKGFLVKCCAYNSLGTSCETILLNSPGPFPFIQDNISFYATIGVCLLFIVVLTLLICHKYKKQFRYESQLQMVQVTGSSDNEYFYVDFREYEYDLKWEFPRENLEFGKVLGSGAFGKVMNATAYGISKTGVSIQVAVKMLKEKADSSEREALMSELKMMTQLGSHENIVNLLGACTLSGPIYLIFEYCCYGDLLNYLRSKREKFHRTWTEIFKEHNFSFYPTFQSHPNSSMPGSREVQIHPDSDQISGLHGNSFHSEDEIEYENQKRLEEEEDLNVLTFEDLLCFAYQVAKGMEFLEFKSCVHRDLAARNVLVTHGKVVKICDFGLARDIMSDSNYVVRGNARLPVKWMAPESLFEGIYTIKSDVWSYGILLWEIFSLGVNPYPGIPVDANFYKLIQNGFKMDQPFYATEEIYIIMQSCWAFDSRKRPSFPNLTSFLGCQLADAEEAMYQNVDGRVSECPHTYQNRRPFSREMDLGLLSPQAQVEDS
The data set is described as follows: Inhibition of recombinant human Flt-3 using poly (Glu,Tyr)4:1 as substrate after 60 mins by ELISA.

The nature of data set [4]: Apparent permeability from apical to basolateral side in human Caco2 cells after 35 to 95 mins by LC-MS/MS analysis. It counts as ADME, cell-based. As to conditions: Caco-2. On the technique in general: Caco-2 monolayers are a common model of the intestinal barrier.
The nature of data set [5]: Solubility of compound in TRIS buffer by nephelometric analysis in presence of 0.1% BSA. It counts as physicochemical. The following applies: TRIS buffer with 0.1% BSA.
Data set [6] deals with Liver microsome. The data set is described as follows: Intrinsic clearance in rat liver microsomes at 0.1 uM after 7 to 60 mins by LC-MS/MS analysis. The format is ADME. For orientation: Liver microsomes are vesicles of endoplasmic reticulum, rich in cytochrome P450 enzymes.
A short description of data set [7]: Solubility of compound in HBSS/HEPES buffer at pH 7.4 by nephelometric analysis in presence of 0.1% BSA. The format is physicochemical. The following applies: HBSS/HEPES buffer with 0.1% BSA.
For data set [8], the target named is Insulin-like growth factor 1 receptor (Homo sapiens, UniProt P08069). The data set is described as follows: Inhibition of recombinant human IGF1R using poly (Glu,Tyr)4:1 as substrate after 60 mins by ELISA.
The subject of data set [9] is Liver microsome. The data set is described as follows: Intrinsic clearance in human liver microsomes at 0.1 uM after 7 to 60 mins by LC-MS/MS analysis. It counts as ADME.
Data set [10] deals with Vascular endothelial growth factor receptor 1 (Homo sapiens, UniProt P17948). In words: Inhibition of recombinant human Flt-1 using poly (Glu,Tyr)4:1 as substrate after 60 mins by ELISA.
Data set [11] concerns the target Fibroblast growth factor receptor 1 (Homo sapiens, UniProt P11362). The data set is described as follows: Inhibition of recombinant human FGFR1 using poly (Glu,Tyr)4:1 as substrate after 60 mins by ELISA.
A further data set deals with Ephrin type-A receptor 2 (Homo sapiens, UniProt P29317). In words: Inhibition of recombinant human EPH-A2 using poly (Glu,Tyr)4:1 as substrate after 60 mins by ELISA.
The nature of data set [12]: Efflux ratio of apparent permeability from basolateral to apical side over apical to basolateral side in human Caco2 cells after 35 to 95 mins by LC-MS/MS analysis. It counts as ADME, cell-based. As to conditions: Caco-2.
Data set [13] has as its target Platelet-derived growth factor receptor beta (Homo sapiens, UniProt P09619). The data set is described as follows: Inhibition of recombinant human PDGFR-beta using poly (Glu,Tyr)4:1 as substrate after 60 mins by ELISA.
Data set [14] is described as follows: Apparent permeability from basolateral to apical side in human Caco2 cells after 35 to 95 mins by LC-MS/MS analysis. The format is ADME, cell-based. As to conditions: Caco-2.
Data set [15] has as its target Macrophage-stimulating protein receptor (Homo sapiens, UniProt Q04912). In words: Inhibition of recombinant human Ron using poly (Glu,Tyr)4:1 as substrate after 60 mins by ELISA.
The nature of data set [16]: Intrinsic clearance in mouse liver microsomes at 0.1 uM after 7 to 60 mins by LC-MS/MS analysis. The format is ADME.
Data set [17] concerns the target Hepatocyte growth factor receptor (Homo sapiens, UniProt P08581). In words: Inhibition of recombinant c-Met (unknown origin) using poly (Glu,Tyr)4:1 as substrate after 60 mins by ELISA.

Sequence of Platelet-derived growth factor receptor beta (P09619 whole entry): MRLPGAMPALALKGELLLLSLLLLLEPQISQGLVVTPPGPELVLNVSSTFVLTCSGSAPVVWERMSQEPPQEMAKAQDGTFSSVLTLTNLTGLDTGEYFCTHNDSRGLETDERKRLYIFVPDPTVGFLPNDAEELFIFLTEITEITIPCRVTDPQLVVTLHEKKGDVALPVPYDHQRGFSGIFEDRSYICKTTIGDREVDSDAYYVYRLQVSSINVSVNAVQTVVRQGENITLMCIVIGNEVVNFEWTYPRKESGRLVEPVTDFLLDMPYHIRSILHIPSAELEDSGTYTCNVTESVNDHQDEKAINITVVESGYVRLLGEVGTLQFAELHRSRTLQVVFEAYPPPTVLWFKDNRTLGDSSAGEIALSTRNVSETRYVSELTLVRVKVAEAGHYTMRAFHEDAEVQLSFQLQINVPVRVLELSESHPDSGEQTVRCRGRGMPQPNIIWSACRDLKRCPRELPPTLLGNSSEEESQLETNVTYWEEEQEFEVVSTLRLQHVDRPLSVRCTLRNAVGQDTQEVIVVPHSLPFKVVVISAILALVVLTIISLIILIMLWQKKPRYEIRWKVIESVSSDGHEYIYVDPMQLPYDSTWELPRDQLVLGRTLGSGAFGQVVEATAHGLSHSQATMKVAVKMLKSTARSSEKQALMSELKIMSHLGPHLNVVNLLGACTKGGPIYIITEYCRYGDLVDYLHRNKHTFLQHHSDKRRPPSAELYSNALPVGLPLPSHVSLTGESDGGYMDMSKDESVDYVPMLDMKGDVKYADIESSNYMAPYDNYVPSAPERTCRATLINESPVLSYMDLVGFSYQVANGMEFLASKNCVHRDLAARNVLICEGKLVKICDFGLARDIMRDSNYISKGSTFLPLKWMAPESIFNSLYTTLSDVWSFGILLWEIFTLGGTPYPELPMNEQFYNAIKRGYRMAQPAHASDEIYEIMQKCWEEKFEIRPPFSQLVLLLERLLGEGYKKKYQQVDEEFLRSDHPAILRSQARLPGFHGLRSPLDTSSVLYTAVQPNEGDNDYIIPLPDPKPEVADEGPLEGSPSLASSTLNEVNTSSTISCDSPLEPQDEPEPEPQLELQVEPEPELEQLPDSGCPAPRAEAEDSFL
Sequence of Ephrin type-A receptor 2 (P29317 whole entry): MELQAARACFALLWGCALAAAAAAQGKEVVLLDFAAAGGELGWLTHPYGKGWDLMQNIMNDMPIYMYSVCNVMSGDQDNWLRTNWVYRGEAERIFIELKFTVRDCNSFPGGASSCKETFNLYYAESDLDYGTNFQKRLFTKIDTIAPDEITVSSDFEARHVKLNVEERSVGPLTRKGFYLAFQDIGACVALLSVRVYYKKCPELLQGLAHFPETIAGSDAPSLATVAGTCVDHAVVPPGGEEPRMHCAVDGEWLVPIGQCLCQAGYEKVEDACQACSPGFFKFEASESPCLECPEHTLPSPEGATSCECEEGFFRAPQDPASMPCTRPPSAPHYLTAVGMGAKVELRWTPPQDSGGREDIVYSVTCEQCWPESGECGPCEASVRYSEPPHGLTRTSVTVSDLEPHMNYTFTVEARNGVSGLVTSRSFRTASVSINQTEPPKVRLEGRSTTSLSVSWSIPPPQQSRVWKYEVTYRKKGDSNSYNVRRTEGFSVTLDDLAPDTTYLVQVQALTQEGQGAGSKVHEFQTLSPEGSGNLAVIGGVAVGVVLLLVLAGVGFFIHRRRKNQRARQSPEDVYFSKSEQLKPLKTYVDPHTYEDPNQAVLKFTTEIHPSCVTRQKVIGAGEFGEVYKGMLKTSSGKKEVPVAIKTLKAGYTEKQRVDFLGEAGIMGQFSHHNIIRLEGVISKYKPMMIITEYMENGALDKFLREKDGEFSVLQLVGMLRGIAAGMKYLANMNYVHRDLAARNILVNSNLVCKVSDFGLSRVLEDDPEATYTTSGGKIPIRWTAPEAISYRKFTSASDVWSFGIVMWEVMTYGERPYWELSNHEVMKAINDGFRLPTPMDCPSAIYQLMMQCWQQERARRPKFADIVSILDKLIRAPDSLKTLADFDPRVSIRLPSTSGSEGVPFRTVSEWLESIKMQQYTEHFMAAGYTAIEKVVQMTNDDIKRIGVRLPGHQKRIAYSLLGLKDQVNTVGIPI
Sequence of Insulin-like growth factor 1 receptor (P08069 31-736 limits assumed): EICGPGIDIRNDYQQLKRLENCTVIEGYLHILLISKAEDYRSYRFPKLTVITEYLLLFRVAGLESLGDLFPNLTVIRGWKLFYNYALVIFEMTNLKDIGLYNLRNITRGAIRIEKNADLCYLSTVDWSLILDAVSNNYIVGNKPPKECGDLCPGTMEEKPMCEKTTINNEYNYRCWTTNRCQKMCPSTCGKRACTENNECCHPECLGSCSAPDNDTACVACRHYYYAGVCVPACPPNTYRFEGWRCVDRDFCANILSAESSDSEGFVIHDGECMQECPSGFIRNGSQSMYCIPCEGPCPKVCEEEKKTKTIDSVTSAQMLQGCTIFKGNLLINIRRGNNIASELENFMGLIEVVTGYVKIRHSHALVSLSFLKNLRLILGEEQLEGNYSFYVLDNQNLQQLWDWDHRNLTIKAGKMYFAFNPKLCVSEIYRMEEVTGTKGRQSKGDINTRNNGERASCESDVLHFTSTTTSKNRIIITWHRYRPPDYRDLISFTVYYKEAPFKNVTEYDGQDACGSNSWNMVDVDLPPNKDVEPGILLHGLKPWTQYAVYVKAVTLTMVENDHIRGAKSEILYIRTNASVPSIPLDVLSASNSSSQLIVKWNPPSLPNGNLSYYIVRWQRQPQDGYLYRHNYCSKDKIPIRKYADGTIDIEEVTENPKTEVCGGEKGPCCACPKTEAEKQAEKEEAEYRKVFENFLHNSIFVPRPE
Sequence of Insulin-like growth factor 1 receptor (P08069 741-1367 limits assumed): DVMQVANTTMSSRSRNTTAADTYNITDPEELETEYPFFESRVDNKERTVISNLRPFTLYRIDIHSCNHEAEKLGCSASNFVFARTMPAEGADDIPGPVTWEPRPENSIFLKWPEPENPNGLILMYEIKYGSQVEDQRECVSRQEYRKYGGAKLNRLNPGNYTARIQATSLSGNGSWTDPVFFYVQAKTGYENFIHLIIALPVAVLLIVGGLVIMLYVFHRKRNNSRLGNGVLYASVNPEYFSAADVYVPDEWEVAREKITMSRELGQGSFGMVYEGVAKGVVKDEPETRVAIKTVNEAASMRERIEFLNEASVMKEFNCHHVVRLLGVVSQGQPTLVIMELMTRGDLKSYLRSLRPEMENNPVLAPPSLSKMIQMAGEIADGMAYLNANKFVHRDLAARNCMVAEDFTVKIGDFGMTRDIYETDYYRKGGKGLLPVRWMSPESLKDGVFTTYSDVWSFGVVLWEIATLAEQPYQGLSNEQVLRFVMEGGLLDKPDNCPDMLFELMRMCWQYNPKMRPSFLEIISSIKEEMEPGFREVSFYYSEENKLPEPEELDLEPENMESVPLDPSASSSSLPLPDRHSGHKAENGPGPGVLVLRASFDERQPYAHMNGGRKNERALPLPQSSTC
Sequence of Fibroblast growth factor receptor 1 (P11362 whole entry): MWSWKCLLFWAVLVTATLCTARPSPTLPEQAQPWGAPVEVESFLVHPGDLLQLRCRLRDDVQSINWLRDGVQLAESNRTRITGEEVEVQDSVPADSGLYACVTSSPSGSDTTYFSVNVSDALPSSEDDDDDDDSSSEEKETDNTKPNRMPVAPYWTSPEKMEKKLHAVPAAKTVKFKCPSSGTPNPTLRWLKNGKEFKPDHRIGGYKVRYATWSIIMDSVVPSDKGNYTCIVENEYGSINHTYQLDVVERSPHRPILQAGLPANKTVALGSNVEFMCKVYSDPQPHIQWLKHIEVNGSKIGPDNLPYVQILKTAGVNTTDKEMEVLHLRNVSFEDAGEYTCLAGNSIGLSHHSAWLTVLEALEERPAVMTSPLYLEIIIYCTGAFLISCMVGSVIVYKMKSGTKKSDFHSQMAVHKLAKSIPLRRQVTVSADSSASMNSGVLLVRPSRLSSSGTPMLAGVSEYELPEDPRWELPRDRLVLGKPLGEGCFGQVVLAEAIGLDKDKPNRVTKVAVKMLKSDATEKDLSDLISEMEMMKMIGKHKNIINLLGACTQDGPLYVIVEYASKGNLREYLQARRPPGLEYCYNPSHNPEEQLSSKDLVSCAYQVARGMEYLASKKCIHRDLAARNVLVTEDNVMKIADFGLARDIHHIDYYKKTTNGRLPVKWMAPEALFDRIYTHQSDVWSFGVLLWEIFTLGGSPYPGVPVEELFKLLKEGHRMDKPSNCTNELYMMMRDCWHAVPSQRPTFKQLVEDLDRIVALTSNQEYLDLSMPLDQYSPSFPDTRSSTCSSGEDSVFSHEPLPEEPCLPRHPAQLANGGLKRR

As usually defined, the IC50 is the concentration needed to halve the response being measured. The Papp A→B is how fast a substance crosses the layer from the apical side. One may read the kinetic solubility as the concentration staying in solution when a stock, usually in DMSO, is diluted into the medium. Usually efflux ratio stands for a quotient of directional permeabilities that is used to spot active efflux. What is called Papp B→A is how fast a substance crosses the layer from the basolateral side. As to `Cn1cc(-c2cnc(Nc3cccc(Cn4nc(-c5cnn(C)c5)ccc4=O)c3)nc2)cn1`, in the data set on Mus musculus, the Activity result is given as “Non-toxic”. Also, the inhibition in vivo at 5 mg/kg in data set [1] turned out to be 42.5%. Also, the concentration for half-maximal inhibition (IC50) (in data set [2]; in [3]; in [8]; in data set [10]; in data set [11]; at Ephrin type-A receptor 2) was above 1000 nM in each case. The IC50 in data set [13] is above 1000 nM; in data set [15] it was above 1000 nM; in data set [17] it was 7.5 nM. In [4], the Papp A→B came to 17 ×10⁻⁶ cm/s. Besides, the kinetic solubility in [5] and in data set [7] was 51 µM each time. Besides, the figures for the CLH (in the data set with Liver microsome [6]; in the data set on Liver microsome [9]; in data set [16]) were 36 mL/min/g, 9 mL/min/g and 16 mL/min/g, respectively. Also, the efflux ratio in [12] came out at 1.3. The basolateral-to-apical permeability (Papp B→A) in [14] is 22.8 ×10⁻⁶ cm/s.
